Data: patent publication US20170079966A1, “INHIBITION OF TUMOR CELL INTERACTIONS WITH THE MICROENVIRONMENT RESULTING IN A REDUCTION IN TUMOR GROWTH AND DISEASE PROGRESSION” (Deciphera Pharmaceuticals, LLC, priority 2014, published 2017)

What was measured:
[1] = system: PyMT mammary tumor; experiment: PyMT syngeneic breast cancer model; format: in vivo, mice
Method: Female FVB/NJ mice were implanted in the 4th mammary fat pad with one million cells that had been dissociated from tumor fragments from MMTV-PyMT donor mice. […] Mice (n=10/group) were dosed for three weeks, then, primary tumor and lungs were collected and fixed. Lung sections were stained with H&E at Premier Laboratory. Lung metastases (≧10 cells) were counted manually via microscopy. Data were analyzed via one-way analysis of variance (ANOVA), with post-hoc analysis by the method of Holm-Sidak. For analysis of TIE2-positive macrophages, tumor sections were stained with TIE2 and CD31 antibodies at Premier Laboratory. The density of TIE2-positive cells at the stroma/tumor boundary in each tumor was scored using 0=no staining, 1=low, 2=medium, and 3=high.

[2] = biological target: TIE2 (Homo sapiens, UniProt Q02763); experiment: Phospho-TIE2 Western blot in TIE2 expressing CHO-K1 cells; format: cell-based; design: expressed in transfected cells; host or cells: CHO-K1 (ATCC CCL-61), transient transfection; details: CHO cells transiently expressing TIE2; 4 hours; read-out: IC50, inhibiting the constitutive phosphorylation of TIE2
Sequence of TIE2 (Q02763 23-1124, species assumed): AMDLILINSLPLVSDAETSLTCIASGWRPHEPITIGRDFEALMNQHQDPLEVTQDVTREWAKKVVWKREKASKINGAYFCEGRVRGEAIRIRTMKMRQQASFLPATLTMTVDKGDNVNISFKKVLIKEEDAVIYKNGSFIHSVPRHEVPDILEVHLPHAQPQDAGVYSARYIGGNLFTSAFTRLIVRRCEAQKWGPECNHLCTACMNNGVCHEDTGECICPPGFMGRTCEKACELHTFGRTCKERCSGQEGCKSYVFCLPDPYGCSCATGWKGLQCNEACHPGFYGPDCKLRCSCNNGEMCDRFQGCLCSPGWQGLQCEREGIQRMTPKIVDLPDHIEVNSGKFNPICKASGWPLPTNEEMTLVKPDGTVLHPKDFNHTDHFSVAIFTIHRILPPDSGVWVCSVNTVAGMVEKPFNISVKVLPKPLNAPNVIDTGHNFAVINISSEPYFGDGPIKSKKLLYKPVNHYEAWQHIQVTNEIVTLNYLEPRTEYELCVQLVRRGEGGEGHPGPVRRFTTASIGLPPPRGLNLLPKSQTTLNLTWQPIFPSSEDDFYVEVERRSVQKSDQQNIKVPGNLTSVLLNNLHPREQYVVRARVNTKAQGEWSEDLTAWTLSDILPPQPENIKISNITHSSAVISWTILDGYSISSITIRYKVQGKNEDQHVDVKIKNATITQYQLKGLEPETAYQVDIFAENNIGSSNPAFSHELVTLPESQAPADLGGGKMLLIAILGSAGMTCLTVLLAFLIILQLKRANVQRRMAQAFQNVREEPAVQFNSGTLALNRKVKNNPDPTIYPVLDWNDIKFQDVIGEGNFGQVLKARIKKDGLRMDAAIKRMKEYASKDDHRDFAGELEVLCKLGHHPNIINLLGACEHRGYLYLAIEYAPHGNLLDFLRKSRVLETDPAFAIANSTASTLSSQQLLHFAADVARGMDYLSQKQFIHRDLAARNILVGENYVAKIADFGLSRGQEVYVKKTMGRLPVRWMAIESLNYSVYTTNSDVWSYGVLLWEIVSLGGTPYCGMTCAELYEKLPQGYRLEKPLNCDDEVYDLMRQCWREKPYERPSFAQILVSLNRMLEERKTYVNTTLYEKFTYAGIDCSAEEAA
Method: Briefly, cells were grown in F12K medium supplemented with 10% characterized fetal bovine serum (Invitrogen, Carlsbad, Calif.), 100 units/mL penicillin G, 100 μg/ml streptomycin, and 0.29 mg/mL L-glutamine (Invitrogen, Carlsbad, Calif.) at 37 degrees Celsius, 5% CO2, and 95% humidity.
CHO K1 cells (1×10^5 cells/well) were added to a 24-well tissue-culture treated plate in 1 mL of RPMI1640 medium supplemented with 10% characterized fetal bovine serum and 1× non-essential amino acids (Invitrogen, Carlsbad, Calif.). Cells were then incubated overnight at 37 degrees Celsius, 5% CO2, and 95% humidity. Medium was aspirated, and 0.5 mL of medium was added to each well. Transfection-grade plasmid DNA (TIE2 gene Gateway cloned into pcDNA3.2™/V5-DEST expression vector, Invitrogen, Carlsbad, Calif.) was diluted to 5 μg/mL in room temperature Opti-MEM® I Medium without serum (Invitrogen, Carlsbad, Calif.). Two μL of Lipofectamine LTX Reagent (Invitrogen, Carlsbad, Calif.) was added per 0.5 μg of plasmid DNA. […] Fluorescence was detected using a Storm 840 phosphorimager (GE Healthcare, Piscataway, N.J.) in fluorescence mode. […] The 160 kDa phospho-TIE2 and total TIE2 bands were quantified using ImageQuant software (GE Healthcare, Piscataway, N.J.), and data was plotted using Prism software (GraphPad Software, San Diego, Calif.).

[3] = system: SK-MEL-28 and SK-MEL-5 cells (pERK, pMET, AKT); experiment: HGF-stimulated melanoma cell signal transduction assay; format: cell-based; details: 50 nM, 50 ng/mL HGF 1 hr
Method: SK-MEL-5 and SK-MEL-28 cells were added to 12-well plates at 450,000 and 250,000 cells/well, respectively, and incubated overnight. […] Cells were then stimulated with 50 ng/mL HGF for 1 hr. Antibodies were obtained from Cell Signaling Technology.

Q: With `O=C(Nc1cc(Oc2cc(F)c(NC(=O)C3(C(=O)Nc4ccc(F)cc4)CC3)cc2F)ccn1)C1CC1` [Compound 1, N-(4-(2-(cyclopropanecarboxamido)pyridin-4-yloxy)-2,5-difluorophenyl)-N′-(4-fluorophenyl)cyclopropane-1,1-dicarboxamide] as the compound, how does the “Tumor growth inhibition (TGI)” value ([1]; after dosing for three weeks, paclitaxel 10 mg/kg i.v. every 5 days, Compound 1 15 mg/kg twice daily) read?
A: 69%

Q: And the “Reduction of TIE2 score (stromal density of TIE2+ cells)” value ([1]; same dosing)?
A: 50%

Q: And the “Reduction of lung metastases compared to controls” value ([1]; same dosing)?
A: 74%

Q: What about the IC50 [2] of the same compound?
A: 2.4 nM

Q: And the “HGF-induced activation of MET and AKT” value [3]?
A: inhibited
